Experimental findings from patent CN108129355A, “一种盐酸益母草碱α晶型及其制备方法和应用” (Jingde Xinxing Biological Technology Co Ltd, priority 2018, dated 2018) are described below.

What all share (assay type): physicochemical
The nature of series [1]: Solubility test (溶解度试验). As to conditions: stated in words; values of table 2 missing in this copy.
Series [2] in a line: Strong light (4500lx±500lx) stability.
Series [3] is described as follows: High temperature (60℃) stability.
Series [4] can be described thus: High humidity (RH92.5%) stability.

As for `COc1cc(C(=O)OCCCCNC(=N)N)cc(OC)c1O` [盐酸益母草碱α晶型, 盐酸益母草碱], in series [1], the solubility result was “较好的溶解性”. Also, the “crystal form stability (X-ray powder diffraction result)” value in series [2], in series [3] and in series [4] was “X-射线粉末衍射结果均未发生变化,仍保持原本晶型” in each case.
